pIC50: −log10 of the molar value.
target: MAPK14 (UniProt Q16539); assay: Inhibition of MAPK14 Kinase Activity
Sequence (Q16539 whole entry, looked up): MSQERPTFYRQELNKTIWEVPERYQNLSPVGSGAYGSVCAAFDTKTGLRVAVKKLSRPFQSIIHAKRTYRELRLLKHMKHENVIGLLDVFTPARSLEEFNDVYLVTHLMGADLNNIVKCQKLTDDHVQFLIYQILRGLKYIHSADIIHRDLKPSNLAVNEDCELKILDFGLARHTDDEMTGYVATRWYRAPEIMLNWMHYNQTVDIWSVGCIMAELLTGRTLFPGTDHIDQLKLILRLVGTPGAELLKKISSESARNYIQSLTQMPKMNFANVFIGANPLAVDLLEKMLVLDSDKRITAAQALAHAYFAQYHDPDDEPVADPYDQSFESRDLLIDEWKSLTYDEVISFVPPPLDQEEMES

pIC50, > 5.00:
COC(=O)Cc1noc2cc(-c3cc(C(=O)NC4CC4)ccc3C)ccc12, COC(=O)c1ccc(S(=O)(=O)n2ncc3cc(-c4cc(C(=O)NC5CC5)ccc4C)ccc32)o1, COc1cccc(NC(=O)c2ccc(C)c(-c3ccc4c(C5CCNCC5)noc4c3)c2)c1, Cc1ccc(C(=O)Nc2ccnc(N3CCCC3)c2)cc1-c1ccc2c(C)noc2c1, Cc1ccc(C(=O)NC2CC2)cc1-c1ccc2c(S(=O)(=O)c3ccc(F)cc3)n[nH]c2c1, Cc1ccc(CNC(=O)Cn2ncc3cc(-c4cc(C(=O)NC5CC5)cc(F)c4C)ccc32)cc1, Cc1ccc(C(=O)NC2CC2)cc1-c1ccc2c(cnn2C2CCN(C(=O)OC(C)(C)C)CC2)c1, COC(=O)Cn1ncc2cc(-c3cc(C(=O)NC4CC4)cc(F)c3C)ccc21, Cc1ccc(CNC(=O)Cn2ncc3cc(-c4cc(C(=O)NC5CC5)ccc4C)ccc32)cc1, COc1ccc(CNC(=O)Cn2ncc3cc(-c4cc(C(=O)NC5CC5)cc(F)c4C)ccc32)cc1, Cc1c(F)cc(C(=O)NC2CC2)cc1-c1ccc2c(cnn2C(=O)OC(C)(C)C)c1, Cc1c(F)cc(C(=O)NC2CC2)cc1-c1ccc2c(cnn2S(=O)(=O)c2ccsc2)c1, COc1ccc(CNC(=O)Cn2ncc3cc(-c4cc(C(=O)NC5CC5)ccc4C)ccc32)cc1, Cc1ccc(C(=O)NC2CC2)cc1-c1ccc2c(cnn2CC(=O)NCC2CC2)c1, COc1cccc(S(=O)(=O)n2ncc3cc(-c4cc(C(=O)NC5CC5)ccc4C)ccc32)c1, Cc1ccc(C(=O)NC2CC2)cc1-c1ccc2c(cnn2S(=O)(=O)c2cccc(C#N)c2)c1, Cc1ccc(S(=O)(=O)n2ncc3cc(-c4cc(C(=O)NC5CC5)ccc4C)ccc32)cc1, Cc1ccc(C(=O)NC2CC2)cc1-c1ccc2c(cnn2S(=O)(=O)c2ccc(C(F)(F)F)cc2)c1, Cc1ccc(NC(=O)c2ccnc(N3CCCC3)c2)cc1-c1ccc2onc(C)c2c1, Cc1ccc(C(=O)NC2CC2)cc1-c1ccc2c(N3CCOCC3)noc2c1, Cc1ccc(C(=O)NC2CC2)cc1-c1ccc2c(N)noc2c1, Cc1ccc(C(=O)Nc2nncs2)cc1-c1ccc2c(C3CCNCC3)noc2c1, CCc1ccc(S(=O)(=O)n2ncc3cc(-c4cc(C(=O)NC5CC5)cc(F)c4C)ccc32)cc1, CNC(=O)c1ccc(CNC(=O)Cn2ncc3cc(-c4cc(C(=O)NC5CC5)ccc4C)ccc32)cc1, COc1ccc(S(=O)(=O)n2ncc3cc(-c4cc(C(=O)NC5CC5)ccc4C)ccc32)cc1OC, Cc1ccc(C(=O)NC2CC2)cc1-c1ccc2c(CC(=O)NCCO)noc2c1, Cc1c(F)cc(C(=O)NC2CC2)cc1-c1ccc2[nH]ncc2c1, Cc1ccc(C(=O)NC2CC2)cc1-c1ccc2c(cnn2S(=O)(=O)c2cn(C)cn2)c1, Cc1ccc(C(=O)NC2CC2)cc1-c1ccc2c(cnn2S(=O)(=O)c2ccccc2)c1, CC(=O)c1ccc(S(=O)(=O)n2ncc3cc(-c4cc(C(=O)NC5CC5)ccc4C)ccc32)cc1, Cc1c(F)cc(C(=O)NC2CC2)cc1-c1ccc2c(cnn2S(=O)(=O)c2cc(F)cc(F)c2)c1, Cc1ccc(C(=O)NC2CC2)cc1-c1ccc2c(cnn2S(=O)(=O)c2ccccc2C#N)c1, Cc1ccc(C(=O)NC2CC2)cc1-c1ccc2c(cnn2S(=O)(=O)c2cccc3nonc23)c1, Cc1ccc(C(=O)NC2CC2)cc1-c1ccc2c(CC(=O)NCC3CC3)noc2c1, Cc1ccc(C(=O)NC2CC2)cc1-c1ccc2c(CN3CCN(C)CC3)noc2c1, Cc1c(F)cc(C(=O)NC2CC2)cc1-c1ccc2c(cnn2CC(=O)NCc2ccccc2)c1, Cc1c(F)cc(C(=O)NC2CC2)cc1-c1ccc2c(cnn2S(=O)(=O)c2ccc3c(c2)CCO3)c1, Cc1ccc(C(=O)NC2CC2)cc1-c1ccc2c(N3CCNCC3)noc2c1, Cc1ccc(C(=O)NC2CC2)cc1-c1ccc2nc(NC(=O)C3CC3)sc2c1, CCCNC(=O)Cn1ncc2cc(-c3cc(C(=O)NC4CC4)cc(F)c3C)ccc21, Cc1c(F)cc(C(=O)NC2CC2)cc1-c1ccc2c(cnn2CC(=O)NCC2CC2)c1, Cc1ccc(C(=O)NC2CC2)cc1-c1ccc2c(CN3CCCCC3)noc2c1, Cc1cccc(S(=O)(=O)n2ncc3cc(-c4cc(C(=O)NC5CC5)cc(F)c4C)ccc32)c1, Cc1ccc(C(=O)NC2CC2)cc1-c1ccc2c(cnn2S(=O)(=O)CC(F)(F)F)c1, Cc1ccc(C(=O)Nc2nccs2)cc1-c1ccc2c(C)noc2c1, CCCS(=O)(=O)n1ncc2cc(-c3cc(C(=O)NC4CC4)ccc3C)ccc21, Cc1ccc(C(=O)NC2CC2)cc1-c1ccc2[nH]ncc2c1, Cc1c(F)cc(C(=O)NC2CC2)cc1-c1ccc2c(cnn2CC(=O)NCC(C)(C)C)c1, CNC(=O)c1noc2cc(-c3cc(C(=O)NC4CC4)cc(F)c3C)ccc12, Cc1ccc(C(=O)NC2CC2)cc1-c1ccc2c(CC(=O)NCCCO)noc2c1, Cc1ccc(C(=O)NC2CC2)cc1-c1ccc2c(CC(=O)N3CCCC3)noc2c1, Cc1c(F)cc(C(=O)NC2CC2)cc1-c1ccc2[nH]nc(C)c2c1, Cc1ccc(C(=O)NC2CC2)cc1-c1ccc2c(C)noc2c1, Cc1ccc(NC(=O)c2ccoc2)cc1-c1ccc2c(C)noc2c1, Cc1ccc(C(=O)NC2CC2)cc1-c1ccc2cn[nH]c2c1

Reference: the Kinase Knowledgebase extract (Sharma et al. 2016)
